Source: patent publication US20100286038A1, “FORMULATION CONTAINING CYCLIN-DEPENDENT KINASE INHIBITING COMPOUND AND METHOD OF TREATING TUMORS USING THE SAME” (priority 2007, published 2010)
Like-named read-outs stand apart in the source and are kept apart here.

Key:
[1] = tested on: A2780 ovarian carcinoma xenografts; test: A2780 xenograft ovarian cancer model; type: in vivo, nude mice
[2] = tested on: A549 NSCLC xenografts; conditions: mouse, in vivo
[3] = tested on: A2780 cells; test: in-cell inhibition of thymidine incorporation; type: cell-based; conditions: Homo sapiens
[4] = tested on: AMPK; test: Upstate kinase Profiler counter-screening; type: biochemical
[5] = tested on: CaMKII; type: biochemical
[6] = target: T1, CDK6/cyclinD3 (Homo sapiens, UniProt Q00534); test: Upstate kinase Profiler counter-screening; type: biochemical
T1 construct: purchased Upstate

[7] = target: T2, CDK7/cyclinH/MAT1 (Homo sapiens, UniProt P50613); test: Upstate kinase Profiler counter-screening; type: biochemical
T2 construct: purchased Upstate
T2 sequence (P50613 whole entry, species assumed): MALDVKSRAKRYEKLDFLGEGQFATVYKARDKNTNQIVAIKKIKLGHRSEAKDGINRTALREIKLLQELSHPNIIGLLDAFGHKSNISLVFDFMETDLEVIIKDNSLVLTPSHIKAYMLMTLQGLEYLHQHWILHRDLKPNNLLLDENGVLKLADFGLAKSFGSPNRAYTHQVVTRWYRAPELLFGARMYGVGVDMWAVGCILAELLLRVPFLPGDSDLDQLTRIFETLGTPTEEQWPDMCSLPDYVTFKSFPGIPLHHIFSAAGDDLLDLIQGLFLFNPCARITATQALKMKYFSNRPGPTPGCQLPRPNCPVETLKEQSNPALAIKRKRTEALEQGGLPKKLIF
T2 sequence (P51946 whole entry partner, species assumed): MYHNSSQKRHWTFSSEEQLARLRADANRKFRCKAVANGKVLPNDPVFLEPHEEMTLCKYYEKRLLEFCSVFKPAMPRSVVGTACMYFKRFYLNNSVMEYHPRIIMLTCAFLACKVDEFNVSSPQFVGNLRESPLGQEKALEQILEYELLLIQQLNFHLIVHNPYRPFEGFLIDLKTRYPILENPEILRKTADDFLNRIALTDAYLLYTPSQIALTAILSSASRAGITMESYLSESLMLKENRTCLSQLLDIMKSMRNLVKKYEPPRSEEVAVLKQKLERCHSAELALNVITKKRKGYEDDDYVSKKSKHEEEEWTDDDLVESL
T2 sequence (P51948 whole entry partner, species assumed): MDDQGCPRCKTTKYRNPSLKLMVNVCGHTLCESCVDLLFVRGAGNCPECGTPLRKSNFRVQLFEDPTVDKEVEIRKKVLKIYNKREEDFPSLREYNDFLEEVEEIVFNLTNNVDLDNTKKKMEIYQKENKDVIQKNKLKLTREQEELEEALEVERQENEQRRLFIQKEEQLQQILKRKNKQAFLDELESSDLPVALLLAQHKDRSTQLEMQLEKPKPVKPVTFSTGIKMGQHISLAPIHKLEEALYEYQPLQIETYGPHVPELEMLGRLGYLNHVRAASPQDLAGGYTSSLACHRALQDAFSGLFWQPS

[8] = target: T3, cSRC (Homo sapiens, UniProt P12931); test: Upstate kinase Profiler counter-screening; type: biochemical
T3 construct: purchased Upstate
T3 sequence (P12931 whole entry, species assumed): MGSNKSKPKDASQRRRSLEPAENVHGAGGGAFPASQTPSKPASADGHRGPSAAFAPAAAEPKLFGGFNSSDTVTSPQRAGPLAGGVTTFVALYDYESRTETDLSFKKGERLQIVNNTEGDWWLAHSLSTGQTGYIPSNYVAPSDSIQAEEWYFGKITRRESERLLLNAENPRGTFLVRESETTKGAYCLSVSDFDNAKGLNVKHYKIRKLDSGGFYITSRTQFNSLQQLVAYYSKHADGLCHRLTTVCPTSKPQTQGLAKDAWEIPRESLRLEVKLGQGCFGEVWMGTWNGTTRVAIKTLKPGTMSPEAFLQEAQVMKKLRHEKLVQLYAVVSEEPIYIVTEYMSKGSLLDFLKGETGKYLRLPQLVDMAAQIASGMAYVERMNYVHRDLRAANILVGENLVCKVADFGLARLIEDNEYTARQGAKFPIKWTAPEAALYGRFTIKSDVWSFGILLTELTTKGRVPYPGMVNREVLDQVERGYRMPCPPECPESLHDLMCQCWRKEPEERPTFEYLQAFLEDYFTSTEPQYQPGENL

[9] = target: T4, Fes (Homo sapiens, UniProt P07332); test: Upstate kinase Profiler counter-screening; type: biochemical
T4 construct: purchased Upstate
T4 sequence (P07332 whole entry, species assumed): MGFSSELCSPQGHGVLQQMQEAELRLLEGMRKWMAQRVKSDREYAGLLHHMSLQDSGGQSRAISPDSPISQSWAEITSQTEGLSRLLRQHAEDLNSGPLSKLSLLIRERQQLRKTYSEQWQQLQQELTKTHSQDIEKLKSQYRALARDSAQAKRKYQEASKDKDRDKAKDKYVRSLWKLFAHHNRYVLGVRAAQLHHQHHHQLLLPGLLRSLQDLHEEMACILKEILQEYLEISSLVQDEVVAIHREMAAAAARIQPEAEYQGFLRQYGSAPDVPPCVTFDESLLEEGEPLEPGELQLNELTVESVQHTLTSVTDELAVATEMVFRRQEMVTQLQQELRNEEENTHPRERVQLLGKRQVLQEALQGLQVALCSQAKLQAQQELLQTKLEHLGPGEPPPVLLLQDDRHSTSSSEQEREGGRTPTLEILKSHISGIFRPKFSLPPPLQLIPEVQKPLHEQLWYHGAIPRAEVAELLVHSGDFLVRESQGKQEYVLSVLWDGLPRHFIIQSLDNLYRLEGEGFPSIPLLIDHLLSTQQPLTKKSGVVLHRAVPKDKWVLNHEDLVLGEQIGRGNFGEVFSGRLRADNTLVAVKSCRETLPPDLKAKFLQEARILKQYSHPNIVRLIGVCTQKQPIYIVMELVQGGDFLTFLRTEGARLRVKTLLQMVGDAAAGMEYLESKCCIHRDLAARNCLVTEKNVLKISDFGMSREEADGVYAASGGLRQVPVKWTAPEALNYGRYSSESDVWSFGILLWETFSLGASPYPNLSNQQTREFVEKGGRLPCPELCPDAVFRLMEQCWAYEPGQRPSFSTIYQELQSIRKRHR

[10] = target: T5, Lyn (Homo sapiens, UniProt P07948); test: Upstate kinase Profiler counter-screening; type: biochemical
T5 construct: purchased Upstate

[11] = target: T6, MSK1 (Homo sapiens, UniProt O75582); test: Upstate kinase Profiler counter-screening; type: biochemical
T6 construct: purchased Upstate

[12] = target: T7, PKCα (Homo sapiens, UniProt P17252); test: Upstate kinase Profiler counter-screening; type: biochemical
T7 construct: purchased Upstate

[13] = target: T8, PKCβII (Homo sapiens, UniProt P05771); test: Upstate kinase Profiler counter-screening; type: biochemical
T8 construct: purchased Upstate
T8 sequence (P05771 1-673 isoform P05771-2): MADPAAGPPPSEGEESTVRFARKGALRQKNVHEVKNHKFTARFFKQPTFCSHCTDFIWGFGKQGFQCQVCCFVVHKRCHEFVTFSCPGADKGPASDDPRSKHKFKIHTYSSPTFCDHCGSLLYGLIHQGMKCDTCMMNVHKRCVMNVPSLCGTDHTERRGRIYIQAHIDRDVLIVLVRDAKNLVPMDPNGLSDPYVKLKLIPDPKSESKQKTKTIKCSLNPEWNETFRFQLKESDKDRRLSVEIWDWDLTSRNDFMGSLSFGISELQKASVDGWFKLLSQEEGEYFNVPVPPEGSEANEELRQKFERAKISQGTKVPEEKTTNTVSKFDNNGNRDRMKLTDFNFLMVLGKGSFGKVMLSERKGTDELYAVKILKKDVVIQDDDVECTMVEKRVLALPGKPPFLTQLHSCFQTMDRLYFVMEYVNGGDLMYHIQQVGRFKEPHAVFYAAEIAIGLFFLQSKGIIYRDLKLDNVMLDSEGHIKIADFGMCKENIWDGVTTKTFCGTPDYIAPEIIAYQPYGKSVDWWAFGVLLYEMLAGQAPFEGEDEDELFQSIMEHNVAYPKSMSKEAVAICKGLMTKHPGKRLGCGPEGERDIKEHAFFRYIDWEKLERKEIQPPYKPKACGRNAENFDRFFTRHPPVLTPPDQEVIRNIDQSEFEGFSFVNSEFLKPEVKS

[14] = target: T9, PKCε (Homo sapiens, UniProt Q02156); test: Upstate kinase Profiler counter-screening; type: biochemical
T9 construct: purchased Upstate
T9 sequence (Q02156 1-737): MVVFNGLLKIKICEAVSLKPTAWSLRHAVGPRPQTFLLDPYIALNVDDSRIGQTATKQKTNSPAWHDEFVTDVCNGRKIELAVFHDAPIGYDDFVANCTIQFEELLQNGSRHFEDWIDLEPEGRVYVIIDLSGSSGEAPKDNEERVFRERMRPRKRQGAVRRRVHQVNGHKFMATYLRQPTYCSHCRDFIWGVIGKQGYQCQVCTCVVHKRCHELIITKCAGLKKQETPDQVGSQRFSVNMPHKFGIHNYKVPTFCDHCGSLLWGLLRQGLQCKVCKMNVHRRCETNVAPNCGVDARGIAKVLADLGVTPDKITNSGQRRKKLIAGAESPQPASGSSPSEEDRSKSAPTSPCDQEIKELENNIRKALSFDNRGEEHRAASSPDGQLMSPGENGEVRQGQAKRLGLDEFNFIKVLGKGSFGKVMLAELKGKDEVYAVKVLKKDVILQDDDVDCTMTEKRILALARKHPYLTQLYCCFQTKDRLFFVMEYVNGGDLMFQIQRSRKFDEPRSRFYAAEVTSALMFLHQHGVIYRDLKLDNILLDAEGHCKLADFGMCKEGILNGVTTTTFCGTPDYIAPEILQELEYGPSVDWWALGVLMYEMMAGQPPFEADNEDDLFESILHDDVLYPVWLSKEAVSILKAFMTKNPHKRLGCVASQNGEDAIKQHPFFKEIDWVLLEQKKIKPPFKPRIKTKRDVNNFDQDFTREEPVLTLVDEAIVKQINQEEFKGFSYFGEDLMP

[15] = target: T10, PKCθ (Homo sapiens, UniProt Q04759); test: Upstate kinase Profiler counter-screening; type: biochemical
T10 construct: purchased Upstate

[16] = target: T11, Rsk2 (Homo sapiens, UniProt P51812); test: Upstate kinase Profiler counter-screening; type: biochemical
T11 construct: purchased Upstate
T11 sequence (P51812 whole entry, species assumed): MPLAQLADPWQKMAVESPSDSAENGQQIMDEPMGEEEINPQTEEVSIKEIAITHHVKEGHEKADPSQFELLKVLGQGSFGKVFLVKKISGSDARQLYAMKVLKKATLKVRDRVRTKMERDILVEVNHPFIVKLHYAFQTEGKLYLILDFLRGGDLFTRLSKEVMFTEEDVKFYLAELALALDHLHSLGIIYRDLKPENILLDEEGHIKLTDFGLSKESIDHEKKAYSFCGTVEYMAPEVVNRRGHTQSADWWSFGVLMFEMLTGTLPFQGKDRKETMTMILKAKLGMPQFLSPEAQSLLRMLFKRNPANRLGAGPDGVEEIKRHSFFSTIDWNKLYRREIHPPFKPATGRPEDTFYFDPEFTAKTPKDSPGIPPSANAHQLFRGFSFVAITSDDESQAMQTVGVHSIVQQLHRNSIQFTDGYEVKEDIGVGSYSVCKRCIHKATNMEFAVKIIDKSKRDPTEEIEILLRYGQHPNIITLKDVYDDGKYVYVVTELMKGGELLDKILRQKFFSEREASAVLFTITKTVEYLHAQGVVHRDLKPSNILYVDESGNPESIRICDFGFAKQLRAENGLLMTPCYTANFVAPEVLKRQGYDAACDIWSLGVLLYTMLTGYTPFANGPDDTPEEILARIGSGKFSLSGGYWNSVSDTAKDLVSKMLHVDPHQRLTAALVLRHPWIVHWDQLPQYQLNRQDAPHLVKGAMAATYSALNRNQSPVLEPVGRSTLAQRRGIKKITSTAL

[17] = target: T12, YES (Homo sapiens, UniProt P07947); test: Upstate kinase Profiler counter-screening; type: biochemical
T12 construct: purchased Upstate
T12 sequence (P07947 whole entry, species assumed): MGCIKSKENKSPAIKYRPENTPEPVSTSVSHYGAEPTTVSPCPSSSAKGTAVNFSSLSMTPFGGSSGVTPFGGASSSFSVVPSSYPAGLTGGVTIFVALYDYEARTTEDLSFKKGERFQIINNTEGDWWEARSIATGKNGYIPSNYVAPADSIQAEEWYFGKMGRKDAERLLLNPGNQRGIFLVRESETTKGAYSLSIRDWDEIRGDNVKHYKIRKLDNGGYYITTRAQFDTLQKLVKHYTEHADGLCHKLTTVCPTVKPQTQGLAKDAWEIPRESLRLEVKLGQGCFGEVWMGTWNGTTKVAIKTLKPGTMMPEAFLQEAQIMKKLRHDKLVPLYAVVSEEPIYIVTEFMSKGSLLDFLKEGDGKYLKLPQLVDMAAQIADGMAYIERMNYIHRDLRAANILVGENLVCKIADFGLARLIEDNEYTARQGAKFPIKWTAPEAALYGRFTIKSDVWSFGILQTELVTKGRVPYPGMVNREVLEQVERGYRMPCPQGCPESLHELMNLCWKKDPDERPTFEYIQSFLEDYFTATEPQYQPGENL

[18] = tested on: A2780 cells; conditions: 16 hours exposure
Description: Accumulation of the p85 PARP product was also monitored to assess activation of caspases and correlate inhibition of CDKs with the onset of apoptosis.

[19] = in vivo; conditions: nude, mouse, ip
[20] = tested on: H82 (SCLC); test: xenograft tumor model; conditions: mouse, in vivo

CC(=O)O[C@H]1C(=O)[C@@]2(C)[C@H]([C@H](OC(=O)c3ccccc3)[C@]3(O)C[C@H](OC(=O)[C@H](O)[C@@H](NC(=O)c4ccccc4)c4ccccc4)C(C)=C1C3(C)C)[C@]1(OC(C)=O)CO[C@@H]1C[C@@H]2O [paclitaxel, reference compound]
tumor growth inhibited ([1]; 20 mg/kg IP twice weekly, ten day period): 63%
% inhibition observed with benchmark cytotoxic agent [2]: 0%

CN1CC[C@H](c2c(O)cc(O)c3c(=O)cc(-c4ccccc4Cl)oc23)[C@H](O)C1 [Formula III, Flavopiridol, reference compound]
IC50 [3]: 70 nM
MED ([1]; once per day IP for 7 days, dose inducing at least 50% inhibition of tumor growth): 10 mg/kg
% remaining activity ([4]; at 1 μM): 67%
% remaining activity ([4]; at 10 μM): 20%
% remaining activity ([5]; at 1 μM): 44%
% remaining activity ([5]; at 10 μM): 30%
remaining activity at 1 µM ([6]; at 1 μM): 25%
remaining activity at 10 µM ([6]; at 10 μM): 6%
remaining activity at 1 µM ([7]; at 1 μM): 18%
remaining activity at 10 µM ([7]; at 10 μM): 6%
remaining activity at 1 µM ([8]; at 1 μM): 3%
remaining activity at 10 µM ([8]; at 10 μM): 4%
remaining activity at 1 µM ([9]; at 1 μM): 44%
remaining activity at 10 µM ([9]; at 10 μM): 13%
remaining activity at 1 µM ([10]; at 1 μM): 73%
remaining activity at 10 µM ([10]; at 10 μM): 18%
remaining activity at 1 µM ([11]; at 1 μM): 74%
remaining activity at 10 µM ([11]; at 10 μM): 37%
remaining activity at 1 µM ([12]; at 1 μM): 66%
remaining activity at 10 µM ([12]; at 10 μM): 20%
remaining activity at 1 µM ([13]; at 1 μM): 75%
remaining activity at 10 µM ([13]; at 10 μM): 26%
remaining activity at 1 µM ([14]; at 1 μM): 45%
remaining activity at 10 µM ([14]; at 10 μM): 9%
remaining activity at 1 µM ([15]; at 1 μM): 23%
remaining activity at 10 µM ([15]; at 10 μM): 5%
remaining activity at 1 µM ([16]; at 1 μM): 65%
remaining activity at 10 µM ([16]; at 10 μM): 18%
remaining activity at 1 µM ([17]; at 1 μM): 68%
remaining activity at 10 µM ([17]; at 10 μM): 40%
concentration required to induce detectable effects on phospho-Ser 807/811 levels [18]: about 1 micromolar
MTD at 7 days [19]: < 10 mg/kg

N.N.O=C([O-])C1(C(=O)[O-])CCC1.[Pt+2] [carboplatin, reference compound]
% inhibition observed with benchmark cytotoxic agent [20]: 40%
